Measured values reported in publication PMC7397144, “Alkyl and Aryl Derivatives Based on p-Coumaric Acid Modification and Inhibitory Action against Leishmania braziliensis and Plasmodium falciparum” (Molecules, 2020).
In brackets after ≈: the same amount, converted by molar mass. Counter-ions that a name gives are not always drawn. Like-named read-outs stand apart in the source and are kept apart here.

Experiments:
[1] = test system: Leishmania braziliensis amastigotes; experiment: In vitro antileishmanial activity, intracellular amastigotes (EGFP, flow cytometry); type: cell-based; details: intracellular amastigotes in U-937 cells, 72 h, mean ± SD
Protocol: The activities of the derivatives in L. braziliensis intracellular amastigotes, transfected with the green fluorescent protein gene (MHOM/CO/88/UA301-EGFP) were evaluated. Initially, human U-937 cells at a density of 3 × 10^5 cells/mL in RPMI 1640 and 0.1 μg/mL PMA (phorbol-12-myristate-13-acetate) were dispensed in a 24-well microplate and incubated at 37 °C, and 5% CO2. At 72 h of incubation, the cells were infected with growing (stationary phase) promastigotes; 15 parasites per cell. The plates were incubated at 34 °C and 5% CO2 for 3 h and the cells then washed twice with phosphate buffer solution (PBS) to eliminate non-internalized parasites. Fresh RPMI-1640 was added to each well (1 mL) and the plates were incubated again to complete the infection. […] The cells were then removed from the bottom plate with a trypsin/EDTA solution (250 mg), and centrifuged at 1100 rpm for 10 min at 4 °C; the supernatant was discarded and the cells were washed with 1 mL of cold PBS and centrifuged twice at 1100 rpm for 10 min at 4 °C. After this final wash, the supernatant was discarded and the cells were suspended in 500 μL of PBS.
The cells were run in a flow cytometer (Cytomics FC 500MPL), reading at 488 nm (exciting) and 525 nm (emitting) over an argon laser, and counting 10,000 events. Infected cells were determined according to green fluorescence events (parasites). Infected cells exposed to the control drug (amphotericin B) were used as antileishmanial activity controls (positive control). Infected cells incubated in the absence of any compound or drug were used as infection controls (negative control). Non-specific fluorescence was corrected by subtracting fluorescence from unstained cells. All determinations were performed in triplicate, in at least two independent experiments.
(§1) Data for percentages of parasite reduction or inhibition were used to calculate the EC50 using Probit linear regression modeling. […] The selectivity index (SI) was calculated dividing cytotoxic activity by anti-parasitic activity using the following formula: SI = CL50 ÷ CE50.

[2] = in vitro
Protocol: The compounds were analyzed for viability of the human pro-monocytic cell line U-937 (ATCC CRL- 1593.2TM) using an MTT (3-(4,5-dimethylthiazol-2-yl)-2,5- diphenyltetrazolium bromide) assay based on a previously described methodology, assessing cytotoxic activity. The resulting compounds were determined by measuring mitochondrial dehydrogenase activity, adding […] of MTT solution (0.5 mg/mL) and incubation at 37 °C for 3 h. Cell viability was defined from the quantity of formazan produced and the intensity of color (absorbance) registered through optical density (O.D.) obtained at 570 nm in a (VarioskanTM Flash Multimode Reader—Thermo Scientific, Waltham, MA, USA) spectrophotometer. As a negative control, isolated cells were cultured (without the compounds) to observe viability. […] We performed two independent tests with each concentration, in triplicate.
Cytotoxicity was determined according to the viability and mortality percentages obtained in each experimental condition (synthesized compounds, amphotericin B, benznidazole, chloroquine, and culture medium). Viability percentages were first calculated using Equation (1). (1) % Viability=O.D exposed cells÷O.D Control cells × 100 Then, cell growth inhibition percentage was calculated as 100 - % viability.
The cell growth inhibition percentages were used to calculate median lethal concentrations (LC50) using Probit analysis.

[3] = test system: Plasmodium falciparum 3D7; experiment: In vitro antiplasmodial activity (LDH, Malstat); type: cell-based; details: for EC50: Plasmodium falciparum
Protocol: Cultures of asynchronous P. falciparum 3D7 strains were adjusted for 0.5% parasitemia and 1% hematocrit in RPMI medium enriched with 3% lipid-rich bovine serum albumin—Albumax II. […] The plates were incubated for 48 h at 37 °C in an atmosphere of N2 (90%), CO2 (5%) and O2 (5%). After incubation, the parasites were harvested and subjected to three 20-min freeze-thaw cycles. At the same time, 100 µL of Malstat reagent (400 µL of Triton X-100 in 80 mL of deionized water, 4 g of L-lactate, 1.32 g of Tris buffer, and 0.022 g of adenine acetylpyridine dinucleotide in 200 mL of deionized water; pH 9.0), and […] of NBT/PES solution (0.16 g of nitroblue-tetrazolium salt, and 0.08 g of phenazine sulfate in 100 mL of deionized water) were added to each well of an additional 96-well plate. After freezing and thawing cycles, the culture in each of the wells on the first plate was re-suspended by pipetting, and 15 µL was removed from each well and added to the corresponding well on the additional plate (containing the Malstat and NBT/PES reagents). After one hour of incubation in the dark, the color development of the lactate dehidrogenase (LDH) reaction was read on a spectrofluorometer (Varioskan, Thermo, Waltham, MA, USA) at 650 nm. The color intensity in each experimental condition was recorded in fluorescent units (F.U). Non-specific fluorescence was corrected by subtracting F.U. from the blanks. The entire experiment was performed in triplicate in at least two independent experiments. Chloroquine (QC) was used as a positive control and the culture medium was used as a negative control.
The antiplasmodial activity of each compound was evaluated through reduction in parasite growth, calculated according to Equation (2):(2) % parasite inhibition=100−F.U exposed parasites÷F.U non exposed parasites × 100
as §1

[4] = test system: P. falciparum; parameters: method as in ref 42 = [42]; 42. Sudi S. Hassan W.R.M. Ali A.H. Basir R. Embi N. Sidek H.M. A derivative of cinnamic acid, methyl-4-hydroxycinnamate modulates inflammatory cytokine levels in malaria-infected mice through inhibiti; details: cited from earlier work
[5] = test system: Leishmania amazonensis; parameters: method as in Lima et al. (2016) 46; details: ref Lima et al. (2016) 46; cited from earlier work
[6] = test system: Trypanosoma brucei; parameters: method as in Steverding et al. (2016) 51; details: ref Steverding et al. (2016) 51; cited from earlier work
[7] = test system: L. amazonensis; parameters: method as in ref 41 = [41]; 41. Monzote L. Córdova W.H.P. García M. Piñón A. Setzer W.N. In-vitro and In-vivo Activities of Phenolic Compounds Against Cutaneous Leishmaniasis Rec. Nat. Prod. 2016 10 269 276; details: cited from earlier work
[8] = 3D7, 48 h, read-out: Plasmodium falciparum EC50, 3D7 strain, 48 h, mean ± SD

| SMILES | EC50 [1] | CC50 [2] | EC50 [3, 8] | also measured |
| --- | --- | --- | --- | --- |
| C[C@@H]1[C@H](O)[C@@H](C)/C=C/C=C/C=C/C=C/C=C/C=C/C=C/[C@H](O[C@@H]2O[C@H](C)[C@@H](O)[C@H](N)[C@@H]2O)C[C@@H]2O[C@](O)(C[C@@H](O)C[C@@H](O)[C@H](O)CC[C@@H](O)C[C@@H](O)CC(=O)O[C@H]1C)C[C@H](O)[C@H]2C(=O)O [AMB, amphotericin B, reference compound] | 0.3 ± 0.07 µg/mL (≈ 0.325 µM) | 38.4 ± 6.3 µg/mL (≈ 41.6 µM) |  |  |
| CCN(CC)CCCC(C)Nc1ccnc2cc(Cl)ccc12 (stereo not drawn) [CQ, chloroquine diphosphate salt, reference compound] |  |  |  | EC50 ([3]; 3D7, 48 h, read-out: Plasmodium falciparum EC50): 3.35 ± 0.39 µg/mL |
| COC(=O)/C=C/c1ccc(O)cc1 [Compound 1, methyl p-coumarate] | 8.28 ± 0.14 µg/mL (≈ 46.5 µM) | 6.26 ± 0.03 µg/mL (≈ 35.1 µM) |  | EC50 ([3]; 3D7 strain, 48 h, mean ± SD, read-out: Plasmodium falciparum EC50): 64.6 ± 2.89 µg/mL (≈ 362 µM); activity against P. falciparum [4]: presents activity |
| CCOC(=O)/C=C/c1ccc(O)cc1 [Compound 2, ethyl p-coumarate] | 4.91 ± 0.64 µg/mL (≈ 25.5 µM) | 1.06 ± 1.08 µg/mL (≈ 5.51 µM) | 110 ± 30.8 µg/mL (≈ 574 µM) |  |
| CCCOC(=O)/C=C/c1ccc(O)cc1 [Compound 3, propyl p-coumarate] | 6.3 ± 1.14 µg/mL (≈ 30.5 µM) | 11.9 ± 0.8 µg/mL (≈ 57.7 µM) | 139 ± 4.07 µg/mL (≈ 674 µM) |  |
| CC(C)OC(=O)/C=C/c1ccc(O)cc1 [Compound 4, isopropyl p-coumarate] | 28.33 ± 0.27 µg/mL (≈ 137 µM) | 96.2 ± 18.9 µg/mL (≈ 467 µM) | 106 ± 9.97 µg/mL (≈ 514 µM) |  |
| COCCOC(=O)/C=C/c1ccc(O)cc1 [Compound 5, methoxy-ethyl p-coumarate] | 87 ± 18.1 µg/mL (≈ 391 µM) | 127 ± 16.5 µg/mL (≈ 570 µM) | 98.7 ± 17.7 µg/mL (≈ 444 µM) |  |
| CCCCOC(=O)/C=C/c1ccc(O)cc1 [Compound 6, butyl p-coumarate] | 323 ± 50 µg/mL (≈ 1470 µM) | 30.9 ± 6.32 µg/mL (≈ 140 µM) | 199 ± 7.9 µg/mL (≈ 903 µM) |  |
| CCCCCOC(=O)/C=C/c1ccc(O)cc1 [Compound 7, pentyl p-coumarate] | 32 ± 5.05 µg/mL (≈ 137 µM) | 16.1 ± 3.81 µg/mL (≈ 68.7 µM) | 156 ± 8.2 µg/mL (≈ 667 µM) | Plasmodium falciparum EC50 ([3]; 3D7 strain, 48 h, mean ± SD): 95.48 ± 1.84 µg/mL |
| CC(C)CCOC(=O)/C=C/c1ccc(O)cc1 [Compound 8, isopentyl p-coumarate] | 6.02 ± 0.22 µg/mL (≈ 25.7 µM) | 19.6 ± 1.76 µg/mL (≈ 83.6 µM) | 95.5 ± 1.84 µg/mL (≈ 408 µM) | Plasmodium falciparum EC50 ([3]; 3D7 strain, 48 h, mean ± SD): 156.37 ± 8.2 µg/mL |
| CCCCCCOC(=O)/C=C/c1ccc(O)cc1 [Compound 9, hexyl p-coumarate] | 4.14 ± 0.55 µg/mL (≈ 16.7 µM) | 11.2 ± 0.86 µg/mL (≈ 45.3 µM) | 206 ± 46.4 µg/mL (≈ 831 µM) |  |
| CCCCCCCCCCCCOC(=O)/C=C/c1ccc(O)cc1 [Compound 10, dodecyl p-coumarate] | 16.3 ± 0.49 µg/mL (≈ 49.1 µM) | 15.4 ± 1.84 µg/mL (≈ 46.4 µM) | 81.2 ± 8.54 µg/mL (≈ 244 µM) |  |
| Cc1ccc(COC(=O)/C=C/c2ccc(O)cc2)cc1 [Compound 11, 4-methylbenzyl p-coumarate] | 5.69 ± 0.3 µg/mL (≈ 21.2 µM) | 20.8 ± 3.47 µg/mL (≈ 77.6 µM) | 84 ± 15.3 µg/mL (≈ 313 µM) |  |
| CC(C)c1ccc(COC(=O)/C=C/c2ccc(O)cc2)cc1 [Compound 12, 4-isopropylbenzyl p-coumarate] | 11.2 ± 0.2 µg/mL (≈ 37.8 µM) | 35.2 ± 13.9 µg/mL (≈ 119 µM) | 93.7 ± 14.2 µg/mL (≈ 316 µM) |  |
| CCOC(=O)/C=C/c1ccc(O)c(O)c1 [ethyl caffeate] |  |  |  | activity against Leishmania amazonensis [5]: no activity |
| CC(C)CCOC(=O)/C=C/c1ccc(O)c(O)c1 [isopentyl caffeate] |  |  |  | antiparasitic activity against Trypanosoma brucei [6]: antiparasitic activity |
| O=C(O)C=Cc1ccc(O)cc1 [p-Coumaric acid] |  |  |  | antiparasitic activity against L. amazonensis [7]: presents antiparasitic activity |
